Here are results for ten compounds from patent US11384078B2, “5,6-fused-bicyclic compounds and compositions for the treatment of parasitic diseases” (NOVARTIS AG, priority 2017, dated 2022).

The structures appear in SMILES notation. Some results are limits rather than exact numbers.

Holding throughout (assay type): cell-based
In experiment [1] the test system is Leishmania donovani axenic amastigote. The experiment is described as follows: In vitro assay for growth inhibition of Leishmania donovani axenic amastigote (Cell TiterGlo luminescence). The conditions noted are these: Leishmania donovani, L. donovani axenic amastigotes in vitro; read-out: L. donovani amastigotes EC50. The procedure, abridged:
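Compound-treated wells received 9600 axenic amastigotes in RPMI 1640-based medium at pH 5.5 (37 °C, 5% CO2). Growth measured as ATP luminescence (CellTiter-Glo) after 2-day incubation; DMSO and reference compounds served as controls.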
Background: ATP-based viability assays read luminescence as a measure of living cells.

For experiment [2], the system named is L. donovani HU3 strain in mouse peritoneal macrophages. The experiment is described as follows: Assay for inhibition of parasitemia of Leishmania donovani in mouse macrophages (SYBR Green nuclei count, high-content imaging). The conditions noted are these: Leishmania donovani, Peritoneal macrophage, L. donovani in mouse peritoneal macrophages; read-out: L. donovani in Mouse Macrophages EC50. The essentials:
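Parasite numbers were counted from SYBR Green-stained nuclei imaged by high-content microscopy after paraformaldehyde fixation and Triton permeabilization. Before this, compound was applied for 5 days at 37° C to BALB/c peritoneal macrophages (2×10^4/well) that had been exposed 24 h to 4×10^5 L. donovani HU3 amastigotes harvested from infected mouse spleens.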

The test system of experiment [3] is Trypanosoma cruzi amastigotes cultured in 3T3 fibroblast cells. The experiment is described as follows: Assay for growth inhibition of kinetoplastid parasite Trypanosoma cruzi (beta-galactosidase Tulahuen strain, CPRG readout). As to conditions: Trypanosoma cruzi, Fibroblast, T. cruzi amastigotes in 3T3 fibroblast cells; read-out: Buckner infectious T. cruzi EC50. The essentials:
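3T3 fibroblasts (1,000 cells/well) plated overnight, treated with compound in DMSO, then infected with 10,000 Lac-Z-expressing Tulahuen trypomastigotes. After 6 days, 0.6 mM CPRG with 0.6% NP-40 added for 2 h at room temperature; absorbance gives relative intracellular amastigote numbers. Benznidazole and nifurtimox serve as positive controls.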

For experiment [4], the system named is Trypanosoma brucei brucei (Lister 427) strain. The experiment is described as follows: Assay for growth inhibition against Trypanosoma brucei brucei (Cell TiterGlo ATP luminescence). As to conditions: Trypanosoma brucei, T. brucei brucei (Lister 427); read-out: T. Brucei (HAT) EC50. The procedure, abridged: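 Growth read-out is cellular ATP by CellTiter-Glo luminescence, measured 30 min after reagent addition, following 2-day incubation at 37 °C in CO2. Parasites (10,000/mL, HMI-9 plus 10% FBS and 10% serum plus) faced 10 threefold dilutions in duplicate; IC50 taken as 50% growth inhibition versus untreated.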

For orientation: EC50 means the midpoint of the concentration-response curve. Take `CN(C)c1cnc2nn(-c3cc(NC(=O)N4CC5(CC5)C4)ccc3F)cc2c1` [Compound 260, N-{3-[5-(dimethylamino)-2H-pyrazolo[3,4-b]pyridin-2-yl]-4-fluorophenyl}-5-azaspiro[2.3]hexane-5-carboxamide]: the EC50 in experiment [1] turned out to be 221 nM; in experiment [2], 224 nM; in experiment [3] it was 49 nM; in experiment [4] it was 43 nM.
On to `CC(C)CNc1cnc2nn(-c3cc(NC(=O)N4CC(F)C4)ccc3F)cc2c1` [Compound 198, 3-fluoro-N-(4-fluoro-3-{5-[(2-methylpropyl)amino]-2H-pyrazolo[3,4-b]pyridin-2-yl}phenyl)azetidine-1-carboxamide], for which the concentration for a half-maximal effect (EC50) in experiment [1] is 546 nM; in experiment [2], 49 nM; in experiment [3], 23 nM; in experiment [4] it was 5 nM.
The like results for `O=C(Nc1ccc(F)c(-n2cc3cc(C4CCOCC4)cnc3n2)c1)N1CC(F)C1` [Compound 148, 3-fluoro-N-{4-fluoro-3-[5-(oxan-4-yl)-2H-pyrazolo[3,4-b]pyridin-2-yl]phenyl}azetidine-1-carboxamide] were, in that order, 8.1 nM, 12 nM, 14 nM and less than 23 nM.
The like results for `CNc1cnc2nn(-c3cc(NC(=O)c4ccco4)ccc3F)cc2c1` [Compound 139, N-{4-fluoro-3-[5-(methylamino)-2H-pyrazolo[3,4-b]pyridin-2-yl]phenyl}furan-2-carboxamide] were, in that order, 740 nM, 320 nM, 3000 nM and less than 23 nM.
The like results for `Cn1cc(-c2cnc3nn(-c4cc(NC(=O)N5CC(F)C5)ccc4F)cc3c2)cn1` [Compound 304, 3-fluoro-N-{4-fluoro-3-[5-(1-methyl-1H-pyrazol-4-yl)-2H-pyrazolo[3,4-b]pyridin-2-yl]phenyl}azetidine-1-carboxamide] were, in that order, 4 nM, 3 nM, 30 nM and 5 nM.
For the compound `Cc1nc(C)c(C(=O)Nc2ccc(F)c(-n3cc4cc(NC(=O)OC(C)C)cnc4n3)c2)o1` [Compound 159, propan-2-yl N-{2-[5-(dimethyl-1,3-oxazole-5-amido)-2-fluorophenyl}-2H-pyrazolo[3,4-b]pyridin-5-yl}carbamate], the concentration giving a half-maximal response (EC50) is 13 nM in experiment [1], 17 nM in experiment [2], 37 nM in experiment [3] and less than 23 nM in experiment [4].
The like results for `O=C(Nc1cccc(-n2cc3cc(N4CC(F)(F)C4)cnc3n2)c1)N1CCC1` [Compound 343, N-{3-[5-(3,3-difluoroazetidin-1-yl)-2H-pyrazolo[3,4-b]pyridin-2-yl]phenyl}azetidine-1-carboxamide] were, in that order, 10 nM, 32 nM, 14 nM and 9 nM.
The like results for `CN(C)c1cnc2nn(-c3cc(NC(=O)N4CC[C@@H](F)C4)ccc3F)cc2c1` [Compound 133, (3R)-N-{3-[5-(dimethylamino)-2H-pyrazolo[3,4-b]pyridin-2-yl]-4-fluorophenyl}-3-fluoropyrrolidine-1-carboxamide] were, in that order, 12 nM, 8 nM, 5.9 nM and less than 23 nM.
The like results for `O=C(Nc1ccc(F)c(-n2cc3cc(N4CCC5(CCOCC5)C4)cnc3n2)c1)N1CC(F)C1` [Compound 244, 3-fluoro-N-[4-fluoro-3-(5-{8-oxa-2-azaspiro[4.5]decan-2-yl}-2H-pyrazolo[3,4-b]pyridin-2-yl)phenyl}azetidine-1-carboxamide] were, in that order, 550 nM, 21 nM, 14 nM and 5 nM.
In the case of `CC(C)c1cnc2nn(-c3cc(NC(=O)C4CC4)ccc3F)cc2c1` [Compound 90, N-{4-fluoro-3-[5-(propan-2-yl)-2H-pyrazolo[3,4-b]pyridin-2-yl]phenyl}cyclopropanecarboxamide], the EC50 in experiment [1] was 280 nM; in experiment [2] it was 310 nM; in experiment [3], 140 nM; in experiment [4], 77 nM.
